The values that follow come from PubChem BioAssay AID1787 (Sanford-Burnham Center for Chemical Genomics, 2009).

For the test, the system named is MDA-MB-435 cytotoxicity with TRAIL, ATPlite luminescence, 24 h. Kind of test: PubChem AID 1787.

Active and inactive are the calls of the source. The rule behind the calls is not given here.

Take `CSc1nc(-c2ccc(C)cc2)nc(C(Cl)Cl)n1`: the cytotoxicity runs as follows: (TRAIL alone cytotoxicity, dose or concentration not given here) 42%; (compound alone cytotoxicity series, at 30 µM, stronger effect = higher value) 8%. In addition, under “at 30 µM (top of the series)”, the cytotoxicity with TRAIL was 92 (inactive).
